logP, solubility and log10 OH rate constant (cm³/molecule/s) data for 83 compounds are collected here from the OPERA property sets (Mansouri et al. 2018).

Molecules are shown by their SMILES. ≈ marks a conversion by molar mass, not a printed value. Where a SMILES comes first, the peptide text is derived from it. The star is where a group is joined. NHtBu = CC(C)(C)N*

Settings in the first data set: not given
Compound `O=C(NCc1ccc(O)cc1)C(=O)c1c[nH]c2ccc([N+](=O)[O-])cc12` gave a logP of 2.67. For `CCC(C(=O)Oc1ccccc1)C(C)C` (configuration not stated), the log partition coefficient (logP) was found to be 4.2. The same measure, in the same setting: for `NS(=O)(=O)c1cc2c(cc1Cl)NC(C1CC3C=CC1C3)NS2(=O)=O` (configuration not stated) the value was 1.95; for `Nc1nc2c(ncn2COCCO)c(=O)[nH]1`, -1.56. Still for that read-out and setting: for `CCOC1OC2OC3(C)CCC4C(CO)CCC(C1C)C24OO3` (configuration not stated) the value was 2.08. On the same count and under the same terms, for `c1ncncn1` the value was 0.12; for `COC1=CC(=O)C=CC1=O`, -0.06. In the case of `CCCCc1ccc(N)cc1`, the logP was determined as 3.05. Same read-out and setting: for `CCN(CC)CCN=c1cc2n(-c3ccc(Cl)cc3)c3ccccc3nc-2cc1Nc1ccc(Cl)cc1` the value was 7.97; for `CCCCCCOC(=O)c1cccnc1`, 3.51. For the compound `CC(=O)NCCc1c[nH]c2ccccc12`, the log partition coefficient (logP) amounted to 1.41. On the same count and under the same terms, under `CCCN1CCOC2c3cc(O)ccc3CCC21` (configuration not stated) stands 2.44; under `CC(C)CC(=O)Oc1ccccc1`, 3.18. Still for that read-out and setting: for `OC(CNC1COCCC1Br)Cn1ccnc1` (configuration not stated) the value was -0.17; for `Cn1ccc(=O)c(O)c1`, -0.7; for `ClC1=CC2(Cl)C3C(Cl)C(Cl)C(Cl)C3C1(Cl)C2(Cl)Cl` (configuration not stated), 5.91. On the same count and under the same terms, under `CC(=O)c1cccc(NCc2cnc3nc(N)nc(N)c3c2C)c1` stands 1.46; under `CC(=O)OCn1cc2c(=O)n(COC(C)=O)cnc2n1`, -0.2; under `C=CCOc1ccccc1OCC(CNC(C)C)OC(=O)CCC` (configuration not stated), 3.95. `CCCCCCOC(=O)c1ccccc1C(=O)OCCCCCC` had a logP of 6.82. Compound `C=CCOc1ccccc1OCC(CNC(C)C)OC(=O)C1CC1` (configuration not stated) displayed a logP of 3.01.

In the case of `CCCCCCCCCC(C)=O`, the logP was 4.09.

`CCC(Oc1ccc(Cl)cc1C)C(=O)O` (configuration not stated): the logP turned out to be 3.47.

On to `CCOC(=O)[C@@H](N)Cc1ccc(O)c(O)c1`, for which the logP is 0.28.

`N#CCCN(N)c1nc2cc(C(F)(F)F)ccc2o1`: the logP stood at 1.72. In turn, `CCCCC[C@H](O)/C=C/[C@@H]1[C@@H](C/C=C\CCCC(=O)O)[C@@H](O)C[C@H]1O` displayed a logP of 4.39. On the same count and under the same terms, under `COC(=O)C1=C(C)NC(C)=C(C(=O)OCCN2CCN(C(c3ccccc3)c3ccccc3)CC2)C1c1cccc([N+](=O)[O-])c1` (configuration not stated) stands 5.2.

Compound `Clc1cccc(O[Si]23OCCN(CCO2)CCO3)c1` had a logP of 0.46. `C=CCOCCO` returned a logP of -0.1. In the case of `c1ccc2c(c1)[nH]c1cnccc12`, the log partition coefficient (logP) came out at 3.17. Same read-out and setting: under `Cc1cc(Cl)c(Cl)cc1Cc1c(Cl)cccc1Cl` stands 7.15. `CC[n+]1c(-c2ccccc2)c2cc(N)ccc2c2ccc(N)cc21.[Br-]` returned a solubility of 50700 µM. Turning to `Clc1cc2c(Cl)cc(Cl)c(Cl)c2c(Cl)c1Cl`, the lipophilicity (logP) came to 7.5. On to `CC(=O)Nc1nc(=O)c2ncn(COCCOC(C)=O)c2[nH]1`, for which the logP is -0.85. As to `CC(=O)Nc1nc2c(ncn2COCCO)c(=O)[nH]1`, the log partition coefficient (logP) was -1.3. Same read-out and setting: under `CC1CCC(=O)N1` (configuration not stated) stands -0.1; under `C[N+](C)(C)CCCl.[Cl-]`, -3.8; under `CC(C)COC(=O)n1c(-c2cscn2)nc2ccccc21`, 3.46. Same read-out and setting: for `O=[N+]([O-])c1c(Cl)ncnc1Cl` the value was 2.29.

In turn, `Oc1ccc(O)cc1` gave a solubility of 654000 µM (≈ 72000 µg/mL). `NC(Cc1ccc(O)c(O)c1)C(=O)OCC1CCCCO1` (configuration not stated) registered a logP of 0.47. On the same count and under the same terms, under `CCCN1CCCC1CNC(=O)c1cc(S(N)(=O)=O)ccc1OC` (configuration not stated) stands 2.16; under `Clc1ccc2c(ccc3ccccc32)c1`, 5.16. Compound `COC(=O)CCCCC(=O)OC` gave a solubility of 34400 µM (≈ 6000 µg/mL). For the compound `Nc1ccc(S(=O)(=O)O)cc1`, the logP is -2.16.

`BrCC1CO1` (configuration not stated) yielded a logP of 0.85.

In the case of `O=[N+]([O-])c1ccc2c(c1)CCN2`, the log partition coefficient (logP) was determined as 2.07. Still for that read-out and setting: for `COC1=C(OC)C(=O)C(OC)=C(OC)C1=O` the value was 0.41. The compound `O=[N+]([O-])c1cc(Cl)c(Cl)c(Cl)c1Cl` yielded a logP of 3.93. On to `CC1CCCCN1CCCOC(=O)c1ccc(Cl)c(Cl)c1` (configuration not stated), for which the solubility was determined as 60.6 µM (≈ 20 µg/mL). Compound `CC(=O)NC(C)C(=O)NC(CC(=O)O)C(=O)NC(C)(C)C` (stereo not drawn) (Ac-Ala-Asp-NHtBu; configuration not given here) showed a logP of -0.74. Same read-out and setting: for `C[C@H](CCC(=O)O)[C@H]1CC[C@H]2[C@@H]3[C@H](O)C[C@@H]4C[C@H](O)CC[C@]4(C)[C@H]3C[C@H](O)[C@]12C` the value was 2.02; for `CC(C)CC(=O)OCc1ccccc1`, 3.26; for `CC(C)(C)NCC(O)c1cc(O)cc(O)c1` (configuration not stated), 0.9.

The data set is the same for the next values; noted with them: 20 °C.
`Nc1c(Cl)cc([N+](=O)[O-])cc1Cl` came in with a solubility of 33.8 µM (≈ 7 µg/mL).

Compound `CS(=O)(=O)F` returned a solubility of 306000 µM (≈ 30000 µg/mL).

Still in this data set, the particulars now being: 23 °C.
Compound `CCOP(=S)(Oc1ccc([N+](=O)[O-])cc1)c1ccccc1` (configuration not stated) showed a solubility of 9.62 µM (≈ 3.11 µg/mL).

The same data set, now with this note: 23.0 °C.
Compound `CC(C)CC(C)(C)O` returned a log10 OH rate constant (cm³/molecule/s) of -10.9.

The compound `C=C(F)F` showed a log10 OH rate constant (cm³/molecule/s) of -11.7.

`CC(=O)CC(C)(C)O` displayed a log10 OH rate constant (cm³/molecule/s) of -11.4.

Consider `CCCCOCC(C)O` (configuration not stated), for which the log10 OH rate constant (cm³/molecule/s) is -10.4.

Still in this data set, the particulars now being: 24.0 °C.
As for `c1ccc2ncccc2c1`, the log10 OH rate constant (cm³/molecule/s) was -10.9.

Consider `Clc1ccccc1-c1ccccc1Cl`, for which the log10 OH rate constant (cm³/molecule/s) is -11.7.

Turning to `c1ccc2cnccc2c1`, the log10 OH rate constant (cm³/molecule/s) is -11.1.

The data set is the same for the next values; noted with them: 25 °C.
Turning to `c1ccc2ncccc2c1`, the solubility was determined as 47300 µM (≈ 6110 µg/mL). In the case of `COC(CN(C)C(=O)Nc1nnc(C(C)(C)C)s1)OC`, the solubility came out at 13600 µM (≈ 4100 µg/mL).

`CC(CCc1ccccc1)NCC(O)c1ccc(O)c(C(N)=O)c1` (configuration not stated) showed a solubility of 356 µM (≈ 117 µg/mL). `O=C(Oc1ccccc1)c1ccccc1C(=O)Oc1ccccc1` displayed a solubility of 0.258 µM (≈ 0.082 µg/mL).

In turn, `CC(=O)OCC(=O)[C@H]1CC[C@H]2[C@@H]3CCC4=CC(=O)CC[C@]4(C)[C@H]3CC[C@]12C` came in with a solubility of 23.4 µM (≈ 8.73 µg/mL). For `C=C(C)C(=O)OC(C)(C)C`, the solubility was found to be 7030 µM (≈ 1000 µg/mL). Same read-out and setting: under `Clc1ccccc1-c1ccccc1` stands 25.6 µM (≈ 4.83 µg/mL); under `CCCCCCOC(=O)c1ccccc1C(=O)OCCCCCC`, 0.149 µM (≈ 0.05 µg/mL). Still for that read-out and setting: for `Clc1ccccc1-c1ccccc1Cl` the value was 8.29 µM (≈ 1.85 µg/mL); for `ClC1=C(Cl)[C@]2(Cl)[C@@H]3[C@@H]4C[C@@H]([C@H]5O[C@@H]45)[C@@H]3[C@@]1(Cl)C2(Cl)Cl` (single isomer, unassigned), 0.58 µM (≈ 0.221 µg/mL).

On to `C[C@]12C[C@H](O)[C@H]3[C@@H](CCC4=CC(=O)CC[C@@]43C)[C@@H]1CC[C@@H]2C(=O)CO`, for which the solubility turned out to be 574 µM (≈ 199 µg/mL). As to `Clc1cc2c(oc3c(Cl)c(Cl)c(Cl)c(Cl)c32)c(Cl)c1Cl`, the solubility was found to be 3.3e-06 µM (≈ 1.35e-06 µg/mL). Still for that read-out and setting: for `CN(C)c1ccccc1` the value was 12000 µM (≈ 1450 µg/mL). Still for that read-out and setting: for `CCCCC(C)CCC` (configuration not stated) the value was 0.897 µM (≈ 0.115 µg/mL); for `O=[N+]([O-])c1ccc(F)cc1O`, 8910 µM (≈ 1400 µg/mL).

The same data set, now with this note: 25.0 °C.
As for `OCC(F)(F)C(F)(F)F`, the log10 OH rate constant (cm³/molecule/s) was -13. On the same count and under the same terms, for `C=COC(C)=O` the value was -10.6. On the same count and under the same terms, under `Oc1cccc2ccccc12` stands -9.26; under `CCCCCl`, -11.8. `CCSC(=O)N(CC)C1CCCCC1` showed a log10 OH rate constant (cm³/molecule/s) of -10.5. Same read-out and setting: under `COC(=O)CCCCC(=O)OC` stands -11.1; under `FC(F)OC(C(F)(F)F)C(F)(F)F`, -13.1.

The data set is the same for the next values; noted with them: 27.0 °C.
For `CNC(C)=O`, the log10 OH rate constant (cm³/molecule/s) is -11.3.

The term logP denotes the decadic logarithm of the partition coefficient of the neutral form, usually between octanol and water. Low readings indicate a more hydrophilic compound, high ones a more lipophilic compound. The solubility is how much of the substance goes into solution per volume.
